According to US8703424B2, “Predicting human developmental toxicity of pharmaceuticals using human stem-like cells and metabolomics” (Stemina Biomarker Discovery, Inc., priority 2010, dated 2014):
Read-outs that look alike come from different tables or passages of the source.

Columns and labels:
WA09 hESCs = assay: Random forest prediction of teratogenicity from metabolomics of spent media of dosed hESCs; format: cell-based, human
Experimental: WA09 hESCs, obtained from WiCell Research Institute (NIH National Stem Cell Bank, Madison, Wis.) were cultured in 6-well plates on Matrigel (BD Biosciences, San Jose, Calif.), in mTeSR1 medium (Stem Cell Technologies, Vancouver, BC) incubated at 37° C. under 5% CO2 in a Thermo Electron Form a Series II Water Jacket CO2 Incubator. hESCs were passaged every three or four days at a 1:3 or 1:6 seeding density for routine culture conditions. For dosing experiments, hESCs were passaged at a low density of 1:10 or 1:12 so that they would not require passaging during the […] dosing protocol. To passage hES cells, the StemPro® EZPassage™ disposable stem cell passaging tool (Invitrogen, Carlsbad, Calif.) was used to detach the cells from the wells. Detached cells were removed with a pipette and distributed to new Matrigel plates.
These medium controls provided baseline mass spectral data.
The 2.5 mL of spent media per well from Example 1 was added to 1.67 mL acetonitrile to make a 40% acetonitrile solution. The acetonitrile acts to “quench” the spent media sample, slowing or halting many metabolic processes and aiding in precipitation of cellular proteins. Samples were either stored at −80° C. for later analysis, or for immediate analysis, 250 μL of the quenched solution was mixed with 250 μL of water, to a final concentration of 20% acetonitrile, then added to a 3 kDa molecular weight cut-off filter spin column (Microcon YM-3 Centrifugal Filter, Millipore, Billerica, Mass.). Each sample was then centrifuged in an IEC CL31R Multispeed Centrifuge (Thermo Scientific, Waltham, Mass.) at 13,000×g at 4° C. for 200 minutes. Following centrifugation, the flow-through was saved then dried for several hours in a Savant High Capacity Speedvac Plus Concentrator. The concentrated sample was then dissolved in 50 μL of 0.1% formic acid prior to LC-MS analysis.
5 μl of each sample was injected.
Following LC-MS, chromatograms were inspected for reproducibility. LC-MS runs with total ion counts that vary by more than 25% were repeated to ensure that samples could be accurately compared. These runs were then used to create mass features that correspond to molecules detected across the different LC-MS runs. Mass features were extracted from the LC-MS data using MassHunter Qualitative Analysis software (Agilent Technologies). The following criteria were used as general guidelines, however some flexibility and optimization was needed. m/z values within the range of 75-1500, with a charge of +1 or −1, and a centroid height greater than 1000 were used to generate “mass features.” The mass peaks that pass these criteria were used to fit isotope and adduct (Na^+, K^+, and NH4^+) patterns corresponding to individual molecules, and to establish the abundance of each mass feature. The abundance is calculated by MassHunter software as the sum of the isotopic and adduct peaks that correspond to a single molecular feature. After data deconvolution, mass features showing at least two ions (e.g. (M^+H)^+ and (M^+H)^++1 or (M^+H)^+ and (M^+Na)^+) and an abundance value greater than 50000 for positive-ion mode data and 10000 in negative-ion mode data were included in the data set used for binning of the mass features.
Following feature selection by MassHunter, the data was further preprocessed by MassProfiler (Agilent) software which aligns mass features across multiple LC-MS data files. Mass features were generated for data from each drug treatment experiment (dosed and control) using the default alignment settings in MassProfiler with the requirement that a feature be present in at least 80% of the samples in one treatment. The mass feature datasets for each drug treatment experiment were further processed in a global manner using custom analysis scripts executed in the R statistical software environment. […]

hESCs = assay: Arginine / ADMA fold change ratio (integrated EICs) in dosed hESCs vs controls; conditions: for Arg fold change/ADMA fold change: EIC areas, controls vs. dosed
Experimental: All tested chemicals were purchased from Sigma-Aldrich (St. Louis, Mo.). Cells were dosed with drugs at a concentration equivalent to their published serum circulating therapeutic dosages. Dosing was performed on hESCs in 6-well plates in triplicate, i.e. three wells per plate. The plates were dosed in triplicate, so there were a total of nine dosed wells. In parallel, there were nine “control” wells, in which hESCs were cultured with mTeSR1 containing no drug, and three wells containing Matrigel with mTeSR1 medium without hESCs that served as medium controls. Lastly, three wells of dosed medium controls were prepared, containing Matrigel, mTeSR1 and drug, but no hESCs (FIG. 1). These medium controls provided baseline mass spectral data. On the first day of dosage, the determined concentration of drug was dissolved in mTeSR1, and then 2.5 mL of this solution was added to each dosed well of hESCs. Each day, for four days, the medium was removed and new dosed medium was added. On the fourth day, the medium was removed and added to acetonitrile to make a 40% acetonitrile solution, as outlined in the Sample Preparation section below.
Mass spectrometry was performed using an Agilent QTOF LC/MS system consisting of a G6520AA QTOF high resolution mass spectrometer capable of exact mass MS and MS/MS. In order to facilitate separation of small molecules with a wide range of polarity and to allow increased retention of hydrophilic species, Hydrophilic Interaction Liquid Chromatography (Alpert 1990) was employed. Each sample was run for 30 minutes with the gradient shown in Table 3 at a flow rate of 0.5 mL/min, using 0.1% formic acid in water (Solvent A) and 0.1% formic acid in acetonitrile (Solvent B). Electrospray ionization was employed using a dual ESI source, with an Agilent isocratic pump continuously delivering an internal mass reference solution into the source at approx. 0.01 mL/min. The mass range of the instrument was set to 100-1700 Da. A Phenomenex Luna HILIC column with dimensions 3×100 mm 3 μm particle size was used and maintained at 30° C. 5 μl of each sample was injected. Data acquisition was performed with Agilent MassHunter using high-resolution exact mass conditions.
Valproate is known to cause neural tube defects (DiLiberti et al. 1984) while nitric oxide synthase activity is essential for neural tube closure (Nachmany et al. 2006).

mES cells = conditions: Nieden et al. 2001; cited from earlier work
[1] = system: WA09 human embryonic stem (hES) cells; assay: PLS-DA prediction of teratogenicity from secretome of treated hES cells (Example 9); conditions: DevTox pharmaceutical
Description: (§1) These included 11 known teratogens and 11 known non-teratogens. The current model is based on the mean fold change (treatment versus its associated intra-experimental control) of 15 metabolites common among the secretome of hES cells treated with pharmaceutical agents and unknown chemical compounds.

[2] = blinded drugs; cited from earlier work
[3] = system: WA09 human embryonic stem (hES) cells
Description: as §1

[4] = high dose (H = 10x circulating dose)
[5] = low dose (L = 0.1x circulating dose)

Structure (SMILES) | Classification by the hSLC based assay (WA09 hESCs) | Arg/ADMA Prediction (hESCs) | Arg fold change/ADMA fold change (hESCs) | Correct classification as a teratogen by the EST (mES cells) | % Non (PLS-DA class probability non-teratogen) [1, 4] | % Ter (PLS-DA class probability teratogen) [1, 4] | Confidence (difference between class probabilities) [1, 4] | Prediction [1, 4] | % Non (PLS-DA class probability non-teratogen) [1, 5] | % Ter (PLS-DA class probability teratogen) [1, 5] | Confidence (difference between class probabilities) [1, 5] | Prediction [1, 5] | Predicted teratogenicity (random forest statistical model) (WA09 hESCs; blind study, model trained on TS1, 142 mass features, circulating dose) | Actual teratogenicity [2] | Prediction [3]
O=C1CCC(N2C(=O)c3ccccc3C2=O)C(=O)N1 (stereo not drawn) [Thalidomide] | teratogen | Ter | 0.85 | does not | 0.3 | 0.7 | 0.4 | Ter | 0.65 | 0.35 | 0.3 | Non | – | – | –
CC1=C(/C=C/C(C)=C/C=C/C(C)=C/CO)C(C)(C)CCC1 [Retinol] | – | – | 1.03 | – | 0.65 | 0.35 | 0.3 | Non | 0.75 | 0.25 | 0.5 | Non | Non | Non | –
Nc1ccn([C@@H]2O[C@H](CO)[C@@H](O)[C@@H]2O)c(=O)n1 [CytosineArabinoside] | – | – | – | – | – | – | – | – | – | – | – | – | – | – | Ter
